Molecules are shown by their SMILES.

The term inhibition in vivo denotes how much of the control response was suppressed. The ED50 is the dose at which the effect has come halfway, by size or by number of responders. Usually LD50 stands for the dose at which mortality reaches 50%.

Data set [1] relates to Mus musculus. The experiment in a line: Analgesic activity in albino Mus musculus (mouse) assessed as proportion of animals without pain behaviour symptoms at 10 mg/kg, po administered 1 hr before acetic acid injection measured for 5 to 8 min. It is filed as functional.
Data set [2] concerns Mus musculus. The experiment in a line: Analgesic activity in albino Mus musculus (mouse) assessed as protection against thermal stimulus-induced paw licking and jumping behaviour at 10 mg/kg, po measured after 1 hr by hot plate assay. Format: functional. In general terms: In hot-plate and tail-flick tests a longer latency is read as antinociception.
For data set [3], the system named is Mus musculus. Nature of the data set: Analgesic activity in albino Mus musculus (mouse) assessed as inhibition of acetic acid-induced abdominal writhings at 10 mg/kg, po administered 1 hr before acetic acid injection measured for 5 to 8 min. Format: functional. Particulars: Abdomen.
Data set [4] deals with Mus musculus. Nature of the data set: Selectivity index, ratio of LD50 for albino Mus musculus (mouse) to ED50 for albino Mus musculus (mouse) by acetic acid-induced writhing test.
Data set [5] relates to Mus musculus. Nature of the data set: Analgesic activity in po dosed albino Mus musculus (mouse) assessed as inhibition of acetic acid-induced abdominal writhings administered 1 hr before acetic acid injection measured for 5 to 8 min. It is filed as functional. Particulars: Abdomen.
The subject of data set [6] is Mus musculus. Nature of the data set: Selectivity index, ratio of LD50 for albino Mus musculus (mouse) to ED50 for albino Mus musculus (mouse) by hot-plate test.
Data set [7] concerns Mus musculus. The experiment in a line: Analgesic activity in po dosed albino Mus musculus (mouse) assessed as protection against thermal stimulus-induced paw licking and jumping behaviour measured after 1 hr by hot plate assay. Format: functional.
Data set [8] in a line: Acute toxicity in albino Mus musculus (mouse) assessed as mortality administered intragastrically by kreber method. Format: organism-based. The following applies: in vivo, po.

For the molecule `COc1cc([C@H]2O[C@@]3(C)C[C@H](c4cc(OC)c(OC)c(OC)c4)O[C@H]4C(=O)[C@H](C)[C@H]2C[C@H]43)cc(OC)c1OC`, the Activity with Mus musculus [1] stood at 25%; in the data set on Mus musculus [2], 19%. Besides, the inhibition in vivo at 10 mg/kg in the data set with Mus musculus [3] was 50%.

As for `O=C([O-])Cc1ccccc1Nc1c(Cl)cccc1Cl.[Na+]` [DICLOFENAC SODIUM], the Activity in the data set on Mus musculus [1] is 87.5%; in the data set with Mus musculus [2], 64%. In the data set with Mus musculus [3], the inhibition in vivo at 10 mg/kg amounted to 90%.

With `CC(=O)Oc1ccccc1C(=O)O` [ASPIRIN], the “Ratio LD50/ED50” value in the data set on Mus musculus [4] was 10.3.

Consider `COc1ccc([C@H]2O[C@@]3(C)C[C@H](c4ccc(OC)c(OC)c4OC)O[C@H]4C(=O)[C@H](C)[C@H]2C[C@H]43)c(OC)c1OC`, for which the Activity in the data set on Mus musculus [2] is reported as 9%. Further, the inhibition in vivo at 10 mg/kg in the data set with Mus musculus [3] is 23%.

On to `COc1cc([C@@H]2CC(C)(C)[C@@H]3CC=C(C)[C@@H](O)[C@@H]3O2)cc(OC)c1OC`, for which, in the data set on Mus musculus [2], the Activity came out at 16%. Also, the inhibition in vivo at 10 mg/kg in the data set on Mus musculus [3] was found to be 13%.

Consider `COc1cc([C@@H]2C[C@@]3(C)O[C@H]4C(C)=CC[C@@H]3[C@H]4O2)cc(OC)c1OC`, for which the ED50 in the data set on Mus musculus [5] worked out at 22 mg/kg; with Mus musculus [7] it was 25 mg/kg. Besides, the “Ratio LD50/ED50” value in the data set on Mus musculus [6] and in the data set on Mus musculus [4] was 60 each time. For the same molecule, the Activity with Mus musculus [1] was 25%; in the data set on Mus musculus [2], 72%. In addition, in the data set with Mus musculus [3], the inhibition in vivo at 10 mg/kg worked out at 65%. In data set [8], the LD50 amounted to 500 mg/kg.

The values above are taken from ChEMBL document CHEMBL3045316, “Synthesis and analgesic activity of new heterocyclic compounds derived from monoterpenoids” (Med Chem Res, 2013).
